Holding throughout (type): cell-based, human
For assay [1], the system named is CD8+CD45RA+CCR7+CD62L+ T cells. Kind of assay: Flow cytometry for CD8, CD45RA, CCR7 and CD62L on inhibitor-treated T cells. The note with it: for GATE P4 CD8(PerCP)+, CD45RA(FITC)+, CCR7 (PE)+, CD62L(APC): cells cultured for 14 days; for % of CD62L+CCR7+ double positive cells out of CD45RA+ cells in CD8+ T cell population: 13 days of treatment. The protocol: (§1) DAY 0: Blood was obtained from unidentified donor. After RBC lysis, PBMC were collected using Ficoll-Hypaque separation. […] T cells were cultured in three different conditions: • 1. XVIVO 15 medium (Lonza) with IL2 50 IU/ml, CD3 antibody (30 ng/ml) and CD28 antibody (30 ng/ml). • 2. XVIVO 15 medium (Lonza) with CD3 antibody (30 ng/ml) and CD28 antibody (30 ng/ml). • 3. XVIVO 15 medium (Lonza) with IL2 50 IU/ml DAY 1: Cells were plated in a 6-well plate at a density of 1 million cells in 2 ml/of media (as described above) and treated with different inhibitors
(§2) A second aliquot of the cells cultured for 13 days with all the treatments listed above (1-21) was washed with PBS+1% FBS, stained with CD8-PerCP, CD45RA-FITC, CCR7-PE and CD62L-APC ([…] for each of 4 antibodies) at 4° C. for 1 h, washed twice with […] and analyzed on flow cytometer to check if these drugs are enriching T stem cells showing surface expression of CD8+CD45RA+CCR7+CD62L+.
(§3) Day 0: Blood was obtained from unidentified donor. After RBC lysis, PBMC were collected using Ficoll-Hypaque separation. 200 million T cells were isolated from PBMCs using CD3 microbeads. T cells were cultured overnight in XVIVO 15 medium (Lonza) with IL2 (50 IU/ml), 30 ng/ml of CD3 and CD28 antibodies
(§4) Day 1: Cells were plated in 24-well plates at a density of 0.3 million cells/ml in each well and treated with different drugs.
(§5) On day 7, culture medium was replaced with fresh medium with fresh drugs.
(§6) On day 13, culture medium was replaced with fresh medium and fresh drugs. Half of the cells were transferred to 6-well plates.
(§7) A second aliquot of the cells cultured for 14 days with all the treatments listed above was washed with PBS+1% FBS, stained with CD8-PerCP, CD45RA-FITC, CCR7-PE and CD62L-APC (5 ul/100 ul/sample for each of 4 antibodies) at 4° C. for 1 h, washed twice with PBS+1% FBS and analyzed on flow cytometer to check if these drugs are enriching for T cells showing surface expression of CD8+CD45RA+CCR7+CD62L+.

Assay [2] concerns CD45RA+CCR7+CD62L+ T cells. Kind of assay: Flow cytometry for CD45RA, CCR7 and CD62L on inhibitor-treated T cells (all T cells). The note with it: for GATE P6 CD45RA(FITC)+, CCR7 (PE)+, CD62L(APC): cells cultured for 14 days; for % of CD62L+CCR7+ double positive cells out of CD45RA+ cells in live T cell population: 13 days treatment. The protocol:
as §1, §2, §3, §4, §5, §6, §7

Assay [3] relates to Pgp+ (DiOC2(3)-dye effluxing cells) and CD62L+ T cells. As to the kind of experiment: DiOC2(3) dye efflux plus CD62L-APC staining, flow cytometry of inhibitor-treated T cells. The conditions noted are these: for p5: double +ve pgp+ and CD62L-APC+ from Live cells: treatment for 13 days, IL2 + CD3 and CD28 antibodies. The protocol: (§8) The use of P-glycoprotein (Pgp)-mediated efflux of DiOC2(3) to isolate stem like T cells for adoptive cellular therapy has been described in application no. […] In the following examples, DiOC2(3) staining was used to study the effect of different inhibitors on generation of stem like T cells.
as §1
(§9) The cell growth medium was changed in 6-well plates and fresh drugs were added at same concentration for one more week.
(§10) […] (DAY 11): Culture medium was changed and fresh drugs were added in 6-well plates.
(§11) Subsequently, cells were washed with RPMI medium and dye was effluxed at 37° C. for 90 min. Cells were washed with […], stained with CD62L-APC (5 μl/100 μl/sample) at 4° C. for 1 h, washed twice with PBS+1% FBS and analyzed on flow cytometer to check if these drugs treatment leads to increase in Pgp+/CD62L positive population.
as §3, §4, §5, §6
(§12) Day 14: An aliquot of cells with all the treatments listed above (for 13 days) was used to stain the cells with DiOC2(3) (60 ng/ml in RPMI medium) at 4° C. for 40 min, washed with RPMI medium, DiOC2(3) dye was effluxed at 37° C. for 90 min, washed with PBS+1% FBS, stained with CD62L-APC antibody. CD62L is a marker for resting T cells. (5 μl/100 μl/sample) at 4° C. for 1 h, washed twice with PBS+1% FBS and analyzed on flow cytometer to check if these drugs are affecting the dye-effluxing or Pgp+ (i.e., DiOC2(3)-dull) T-cell population.

For assay [4], the system named is Pgp+ (DiOC2(3)-dye effluxing) T cells. As to the kind of experiment: DiOC2(3) dye efflux flow cytometry of inhibitor-treated T cells. The note with it: for p2: pgp+ from Live cells: treatment for 13 days, IL2 + CD3 and CD28 antibodies. The protocol:
as §8, §1, §9, §10, §11, §3, §4, §5, §6, §12

Setting [5] is: CD3-CD28-IL2 culture, inhibitor 10 nM.
Setting [6] is: CD3-CD28-IL2 culture, inhibitor 100 nM.
[7] abbreviates: CD3-CD28-IL2 culture, inhibitor 200 nM.
Where [8] appears, read: CD3-CD28 culture, inhibitor 10 nM.
Where [9] appears, read: CD3-CD28 culture, inhibitor 100 nM.
[10] abbreviates: CD3-CD28 culture, inhibitor 200 nM.
[11] abbreviates: CD3-IL2 culture, inhibitor 10 nM.
[12] abbreviates: CD3-IL2 culture, inhibitor 100 nM.
[13] abbreviates: CD3-IL2 culture, inhibitor 200 nM.

SMILES strings stand for the structures.

With `O=C1CN=C(c2ccc[nH]2)c2cc(Cl)ccc2N1` [R05335], the “GATE P4 CD8(PerCP)+, CD45RA(FITC)+, CCR7 (PE)+, CD62L(APC)” value (“GATE P4 CD8(PerCP)+, CD45RA(FITC)+, CCR7” for short) in assay [1] (500 nM) is on record as 79.9%. Further, in assay [2] (500 nM), the “GATE P6 CD45RA(FITC)+, CCR7 (PE)+, CD62L(APC)” value (“GATE P6 CD45RA(FITC)+, CCR7” for short) was 69.95%. The results for the “p5: double +ve pgp+ and CD62L-APC+ from Live cells” value (“p5: double +ve pgp+ and CD62L-APC+” below) in assay [3] (100 nM) and in assay [3] (500 nM) were 2.55 and 2.3, respectively. Besides, the “p2: pgp+ from Live cells” value in assay [4] (100 nM) was found to be 14.71; in assay [4] (500 nM), 16.22.

On to `CCN(c1cc(-c2ccc(CN3CCOCC3)cc2)cc(C(=O)NCc2c(C)cc(C)[nH]c2=O)c1C)C1CCOCC1` [TAZE], for which the “GATE P4 CD8(PerCP)+, CD45RA(FITC)+, CCR7” value in assay [1] (100 nM) amounted to 59.72%. Further, in assay [2] (100 nM), the “GATE P6 CD45RA(FITC)+, CCR7” value came to 52.24%. In addition, in assay [3] (100 nM), the “p5: double +ve pgp+ and CD62L-APC+” value is 14.5. In addition, the “p2: pgp+ from Live cells” value in assay [4] (100 nM) came to 42.9.

Take `CCN(c1cc(-c2ccc(CN3CCOCC3)cc2)cc(C(=O)NCc2c(C)cc(C)[nH]c2=O)c1C)C1CCOCC1` [Tazemetostat]: the “% of CD62L+CCR7+ double positive cells out of CD45RA+ cells in CD8+ T cell population” value is given as 62.73% in assay [1] (setting [5]); 83.53% in assay [1] (setting [6]); 80.78% in assay [1] (setting [7]); 87.00% in assay [1] (setting [8]); 88.26% in assay [1] (setting [9]); 88.37% in assay [1] (setting [10]). Moreover, the “% of CD62L+CCR7+ double positive cells out of CD45RA+ cells in CD8+ T cell population” value worked out at 82.23% in assay [1] (setting [11]), 79.86% in assay [1] (setting [12]) and 77.35% in assay [1] (setting [13]). The “% of CD62L+CCR7+ double positive cells out of CD45RA+ cells in live T cell population” value was 50.85% in assay [2] (setting [5]); 67.51% in assay [2] (setting [6]); 66.36% in assay [2] (setting [7]); 77.81% in assay [2] (setting [8]); 79.62% in assay [2] (setting [9]); 78.45% in assay [2] (setting [10]). Also, the results for the “% of CD62L+CCR7+ double positive cells out of CD45RA+ cells in live T cell population” value in assay [2] (setting [11]), in assay [2] (setting [12]) and in assay [2] (setting [13]) were 67.30%, 63.89% and 59.08%, respectively. For the same compound, the “% of Pgp+ CD62L+cells out of live cells” value worked out at 8.42% in assay [3] (CD3-CD28-IL2 culture, inhibitor 10 nM, 6 days treatment); 8.03% in assay [3] (CD3-CD28-IL2 culture, inhibitor 10 nM, 13 days treatment); 13.16% in assay [3] (CD3-CD28-IL2 culture, inhibitor 100 nM, 6 days treatment); 12.57% in assay [3] (CD3-CD28-IL2 culture, inhibitor 100 nM, 13 days treatment); 11.30% in assay [3] (CD3-CD28-IL2 culture, inhibitor 200 nM, 6 days treatment); 14.25% in assay [3] (CD3-CD28-IL2 culture, inhibitor 200 nM, 13 days treatment). The “% of Pgp+ CD62L+cells out of live cells” value in assay [3] (CD3-CD28 culture, inhibitor 10 nM, 6 days treatment) came to 19.36%; in assay [3] (CD3-CD28 culture, inhibitor 10 nM, 13 days treatment) it was 2.95%; in assay [3] (CD3-CD28 culture, inhibitor 100 nM, 6 days treatment), 18.38%; in assay [3] (CD3-CD28 culture, inhibitor 100 nM, 13 days treatment), 1.18%; in assay [3] (CD3-CD28 culture, inhibitor 200 nM, 6 days treatment), 20.94%; in assay [3] (CD3-CD28 culture, inhibitor 200 nM, 13 days treatment), 2.66%. The “% of Pgp+ CD62L+cells out of live cells” value turned out to be 8.76% in assay [3] (CD3-IL2 culture, inhibitor 10 nM, 6 days treatment); 9.87% in assay [3] (CD3-IL2 culture, inhibitor 10 nM, 13 days treatment); 10.11% in assay [3] (CD3-IL2 culture, inhibitor 100 nM, 6 days treatment); 4.31% in assay [3] (CD3-IL2 culture, inhibitor 100 nM, 13 days treatment); 11.97% in assay [3] (CD3-IL2 culture, inhibitor 200 nM, 6 days treatment); 9.08% in assay [3] (CD3-IL2 culture, inhibitor 200 nM, 13 days treatment). Moreover, in assay [3] (culture with CD3 antibody, CD28 antibody and IL2, 6 days of treatment, 100 nM), the “percentage of Pgp+CD62L+ cells” value worked out at 13.168%. The “% of Pgp+ cells out of live cells” value in assay [4] (CD3-CD28-IL2 culture, inhibitor 10 nM, 6 days of treatment) came to 21.86%; in assay [4] (CD3-CD28-IL2 culture, inhibitor 10 nM, 13 days of treatment) it was 30.38%; in assay [4] (CD3-CD28-IL2 culture, inhibitor 100 nM, 6 days of treatment) it was 27.17%; in assay [4] (CD3-CD28-IL2 culture, inhibitor 100 nM, 13 days of treatment), 38.45%; in assay [4] (CD3-CD28-IL2 culture, inhibitor 200 nM, 6 days of treatment) it was 24.85%; in assay [4] (CD3-CD28-IL2 culture, inhibitor 200 nM, 13 days of treatment), 41.22%. In addition, the “% of Pgp+ cells out of live cells” value in assay [4] (CD3-CD28 culture, inhibitor 10 nM, 6 days of treatment) is 39.28%; in assay [4] (CD3-CD28 culture, inhibitor 10 nM, 13 days of treatment), 12.41%; in assay [4] (CD3-CD28 culture, inhibitor 100 nM, 6 days of treatment), 40.50%; in assay [4] (CD3-CD28 culture, inhibitor 100 nM, 13 days of treatment) it was 5.19%; in assay [4] (CD3-CD28 culture, inhibitor 200 nM, 6 days of treatment), 43.11%; in assay [4] (CD3-CD28 culture, inhibitor 200 nM, 13 days of treatment) it was 11.82%. Also, the “% of Pgp+ cells out of live cells” value in assay [4] (CD3-IL2 culture, inhibitor 10 nM, 6 days of treatment) was 24.77%; in assay [4] (CD3-IL2 culture, inhibitor 10 nM, 13 days of treatment), 28.61%; in assay [4] (CD3-IL2 culture, inhibitor 100 nM, 6 days of treatment) it was 25.31%; in assay [4] (CD3-IL2 culture, inhibitor 100 nM, 13 days of treatment), 16.74%; in assay [4] (CD3-IL2 culture, inhibitor 200 nM, 6 days of treatment), 25.89%; in assay [4] (CD3-IL2 culture, inhibitor 200 nM, 13 days of treatment), 28.06%. Besides, the “percentage of Pgp+ cells” value in assay [4] (culture with CD3 antibody, CD28 antibody and IL2, 6 days of treatment, 10 nM) is listed as 27.17%.

Regarding `COc1cc2c(NC3CCN(C(C)C)CC3)nc(N3CCC(F)(F)CC3)nc2cc1OCCCN1CCCC1` [UNC0642], the “GATE P4 CD8(PerCP)+, CD45RA(FITC)+, CCR7” value in assay [1] (10 nM) amounted to 71.62%; in assay [1] (100 nM) it was 82.37%. Further, the “GATE P6 CD45RA(FITC)+, CCR7” value amounted to 63.95% in assay [2] (10 nM) and 75.75% in assay [2] (100 nM). Moreover, the entries for the “p5: double +ve pgp+ and CD62L-APC+” value in assay [3] (10 nM) and in assay [3] (100 nM) were 4.46 and 4.81, respectively. Also, the “p2: pgp+ from Live cells” value in assay [4] (10 nM) is on record as 22.03; in assay [4] (100 nM) it was 32.51.
